The source of these data is patent US9855320B2, “Angiogenin for treatment of glaucoma” (CHUNG-ANG UNIVERSITY INDUSTRY-ACADEMIC COOPERATION …, priority 2011, dated 2018).

The test system of one assay is angiogenin. Kind of assay: Angiogenin immunohistochemical staining of glaucoma rat model anterior chamber angle after instillation. The format is in vivo. As to conditions: episcleral venous ablation glaucoma model, 1 hour after instillation, compared to before angiogenin instillation. How it is done: Eyeballs donated for research purposes were pre-fixed in a 4% paraformaldehyde solution for 6 hours, and then, a tissue thereof was cut to be perpendicular to cornea, including cornea, limbus, and conjunctival, and the obtained tissue was fixed at room temperature for 6 hours. The fixed tissue was rapidly frozen and then a frozen tissue section was prepared and attached to slide glass. Thereafter, for immunohistochemical staining, the tissue section was washed with distilled water for 10 minutes and then, treated with 1% hydrogen peroxide solution for 20 minutes and then, washed three times with 0.02M phosphate buffer solution and treated with normal horse serum for 30 minutes. Then, primary antibody of angiogenin and Indoleamine 2,3-dioxygenase (IDO) were applied thereto for 48 hours, and then the result tissue were washed with PBS, and then, secondary antibody was applied thereto at room temperature for 1 hour. When immunohistochemical staining was completed, the tissue was sealed by poly-mount and identified by optical microscopy. […]

A further assay relates to glaucoma white rats. Kind of assay: Intraocular pressure change due to instillation in glaucoma white rats (day-time and night-time). Type of assay: in vivo, rat. How it is done: Male white rats were used to prepare an episcleral venous ablation glaucoma model. The rat was anesthetized and a limbus periphery was divided into four portions, each of which was then subjected to 2 mm dissection at an interval of 90 degrees, and then, two radial conjunctival excisions were performed on upper dissection periphery. […] Episcleral vein is distinguishable because it is located […] than extra ocular muscle, has relatively low fluidity and a relatively large diameter, contains darker blood in vessel, and is connected to peripheral venous plexus. After surgical isolation of vein, the vein was lifted up by using 3 mm-width wooden spatula to be spaced apart from the peripheral tissue, and then, was subjected to electric ablation while being careful for the peripheral tissue not to have any thermal injury or any mechanical injury due to the contact. After the operation, a chloramphenical ophthalmic agent was administered thereto. Intraocular pressure was consecutively measured three or more times by using Tonopen (Solan, Fla., USA), and only reliable intraocular pressure values within 5% or less were recorded. Only used were rats that had higher intraocular pressure than that before the operation by 5 mmHg or more when measured on the first day, the third day, one week and two weeks before and after operation.
Also, steroid-induced glaucoma model was prepared as follows: 1% prednisolone was instilled twice a day in an amount of 4 μl for 30 days, and only rats that had higher intraocular pressure by 5 mmHg or more before operation were used.
White rats were grouped as a physiological saline solution instillation group, an angiogenin (recombinant human angiogenin, R&D systems, USA) 50 μg/ml instillation group, an angiogenin fragment (angiogenin 108-122, SEQ ID NO: 1, BACHEM, USA) instillation group, and a latanoprost 50 μg/ml instillation group, and each group consisted of 6 rats, that is, 12 eyes. Instillation test was repeatedly performed on normal rats and glaucoma model rats. Ophthalmic agent was administered at 8 AM and 8 PM in an amount of 4 μl to compare day-time effects and night-time effects, and 1, 3, 6, 9, 12, and 24 hours after the instillation, intraocular pressure was measured.

Consider “angiogenin: recombinant human angiogenin (R&D systems); 14.4 kDa single chain protein of 123 amino acids, a ribonuclease inducing angiogenesis”, for which, in the assay on angiogenin, the “angiogenin stain in anterior chamber angle / at trabecular meshwork” value is listed as “intensified”. Further, in the assay with glaucoma white rats (day-time instillation test), the “time after instillation up to which significant intraocular pressure reduction effects were retained” value is on record as “up to 6 hours”. In addition, in the assay on glaucoma white rats (night-time instillation), the “time after instillation up to which intraocular pressure reduction effects were retained” value is given as “up to 12 hours”.
